Tested on: rats
Experiment: forced swimming test in rats
Details: series Pramipexole + amitriptyline
Source text: The test can be carried out as follows for each of the combinations of active substances tested.

| SMILES | Immobility time [s] |
| --- | --- |
| CN(C)CCC=C1c2ccccc2CCc2ccccc21 [Amitriptyline] | 174.6 ± 9.2 |
| CCCNC1CCc2nc(N)sc2C1.Cl.Cl (centres unmarked) [Pramipexole, 2-amino-6-n-propylamino4,5,6,7-tetrahydrobenzo-thiazole-dihydrochloride] | 164.3 ± 9.8 |
